Laboratory results as given in ChEMBL document CHEMBL4507288 (2021).

Experiments:
D(2) dopamine receptor = D(2) dopamine receptor (Homo sapiens, UniProt P14416); test: GPCRScan assay: inhibition of D2; parameters: radioligand conc. used [nm] 0.4 – 1.0, parental cells stable fibroblast
[1] = biological target: Epidermal growth factor receptor (Homo sapiens) (UniProt P00533); conditions: Compound concentration 1000.0 nM
[2] = biological target: Dual specificity protein kinase TTK (Homo sapiens) (UniProt P33981); conditions: Compound concentration 1000.0 nM
[3] = biological target: Interleukin-1 receptor-associated kinase 3 (Homo sapiens) (UniProt Q9Y616); conditions: Compound concentration 1000.0 nM
[4] = tested on: Epidermal growth factor receptor (Homo sapiens), P00533 [L861Q]; conditions: Compound concentration 1000.0 nM
[5] = biological target: Serine/threonine-protein kinase PAK 5 (Homo sapiens) (UniProt Q9P286); conditions: Compound concentration 1000.0 nM
[6] = biological target: Dual specificity mitogen-activated protein kinase kinase 7 (Homo sapiens) (UniProt O14733); conditions: Compound concentration 1000.0 nM
[7] = biological target: Activated CDC42 kinase 1 (Homo sapiens) (UniProt Q07912); conditions: Compound concentration 1000.0 nM
[8] = biological target: Mitogen-activated protein kinase 11 (Homo sapiens) (UniProt Q15759); conditions: Compound concentration 1000.0 nM
[9] = tested on: Epidermal growth factor receptor (Homo sapiens), P00533 [G719C]; conditions: Compound concentration 1000.0 nM
[10] = biological target: Ephrin type-B receptor 1 (Homo sapiens) (UniProt P54762); conditions: Compound concentration 1000.0 nM
[11] = biological target: 1-phosphatidylinositol 3-phosphate 5-kinase (Homo sapiens) (UniProt Q9Y2I7); conditions: Compound concentration 1000.0 nM
[12] = biological target: Proto-oncogene tyrosine-protein kinase Src (Homo sapiens) (UniProt P12931); conditions: Compound concentration 1000.0 nM
[13] = biological target: Tyrosine-protein kinase TXK (Homo sapiens) (UniProt P42681); conditions: Compound concentration 1000.0 nM
[14] = biological target: Tyrosine-protein kinase ABL1 (Homo sapiens) (UniProt P00519); conditions: Compound concentration 1000.0 nM
[15] = biological target: Serine/threonine-protein kinase haspin (Homo sapiens) (UniProt Q8TF76); conditions: Compound concentration 1000.0 nM
[16] = biological target: Dual specificity protein kinase CLK2 (Homo sapiens) (UniProt P49760); conditions: Compound concentration 1000.0 nM
[17] = biological target: Aurora kinase B (Homo sapiens) (UniProt Q96GD4); conditions: Compound concentration 1000.0 nM
[18] = biological target: Rho-associated protein kinase 1 (Homo sapiens) (UniProt Q13464); conditions: Compound concentration 1000.0 nM
[19] = tested on: Mast/stem cell growth factor receptor Kit (Homo sapiens), P10721 [A829P]; conditions: Compound concentration 1000.0 nM
[20] = biological target: Ephrin type-B receptor 3 (Homo sapiens) (UniProt P54753); conditions: Compound concentration 1000.0 nM
[21] = biological target: Beta-2 adrenergic receptor (Homo sapiens) (UniProt P07550); conditions: Compound concentration 10.0 uM
[22] = biological target: Casein kinase II subunit alpha' (Homo sapiens) (UniProt P19784); conditions: Compound concentration 1000.0 nM
[23] = biological target: Calcium/calmodulin-dependent protein kinase type IV (Homo sapiens) (UniProt Q16566); conditions: Compound concentration 1000.0 nM
[24] = biological target: Cyclin-G-associated kinase (Homo sapiens) (UniProt O14976); conditions: Compound concentration 1000.0 nM
[25] = biological target: 5'-AMP-activated protein kinase catalytic subunit alpha-1 (Homo sapiens) (UniProt Q13131); conditions: Compound concentration 1000.0 nM
[26] = biological target: Macrophage colony-stimulating factor 1 receptor (Homo sapiens) (UniProt P07333); conditions: Compound concentration 1000.0 nM
[27] = biological target: Fibroblast growth factor receptor 4 (Homo sapiens) (UniProt P22455); conditions: Compound concentration 1000.0 nM
[28] = biological target: Dual specificity tyrosine-phosphorylation-regulated kinase 2 (Homo sapiens) (UniProt Q92630); conditions: Compound concentration 1000.0 nM
[29] = tested on: Phosphatidylinositol 4,5-bisphosphate 3-kinase catalytic subunit alpha isoform (Homo sapiens), P42336 [I800L]; conditions: Compound concentration 1000.0 nM
[30] = biological target: Testis-specific serine/threonine-protein kinase 1 (Homo sapiens) (UniProt Q9BXA7); conditions: Compound concentration 1000.0 nM
[31] = biological target: Serine/threonine-protein kinase BRSK1 (Homo sapiens) (UniProt Q8TDC3); conditions: Compound concentration 1000.0 nM
[32] = biological target: Serine/threonine-protein kinase 17A (Homo sapiens) (UniProt Q9UEE5); conditions: Compound concentration 1000.0 nM
[33] = biological target: Protein kinase C iota type (Homo sapiens) (UniProt P41743); conditions: Compound concentration 1000.0 nM
[34] = biological target: Fibroblast growth factor receptor 1 (Homo sapiens) (UniProt P11362); conditions: Compound concentration 1000.0 nM
[35] = biological target: Phosphatidylinositol 4-phosphate 5-kinase type-1 gamma (Homo sapiens) (UniProt O60331); conditions: Compound concentration 1000.0 nM
[36] = biological target: Homeodomain-interacting protein kinase 1 (Homo sapiens) (UniProt Q86Z02); conditions: Compound concentration 1000.0 nM
[37] = biological target: Receptor-interacting serine/threonine-protein kinase 4 (Homo sapiens) (UniProt P57078); conditions: Compound concentration 1000.0 nM
[38] = biological target: cAMP-dependent protein kinase catalytic subunit PRKX (Homo sapiens) (UniProt P51817); conditions: Compound concentration 1000.0 nM
[39] = biological target: Casein kinase I isoform epsilon (Homo sapiens) (UniProt P49674); conditions: Compound concentration 1000.0 nM
[40] = biological target: Serine/threonine-protein kinase 38 (Homo sapiens) (UniProt Q15208); conditions: Compound concentration 1000.0 nM
[41] = biological target: Dual specificity testis-specific protein kinase 1 (Homo sapiens) (UniProt Q15569); conditions: Compound concentration 1000.0 nM
[42] = biological target: Ephrin type-A receptor 6 (Homo sapiens) (UniProt Q9UF33); conditions: Compound concentration 1000.0 nM
[43] = biological target: Casein kinase I isoform alpha-like (Homo sapiens) (UniProt Q8N752); conditions: Compound concentration 1000.0 nM
[44] = biological target: TGF-beta receptor type-1 (Homo sapiens) (UniProt P36897); conditions: Compound concentration 1000.0 nM
[45] = biological target: Serine/threonine-protein kinase 35 (Homo sapiens) (UniProt Q8TDR2); conditions: Compound concentration 1000.0 nM

Sequence of Protein kinase C iota type (Homo sapiens) (P41743 whole entry): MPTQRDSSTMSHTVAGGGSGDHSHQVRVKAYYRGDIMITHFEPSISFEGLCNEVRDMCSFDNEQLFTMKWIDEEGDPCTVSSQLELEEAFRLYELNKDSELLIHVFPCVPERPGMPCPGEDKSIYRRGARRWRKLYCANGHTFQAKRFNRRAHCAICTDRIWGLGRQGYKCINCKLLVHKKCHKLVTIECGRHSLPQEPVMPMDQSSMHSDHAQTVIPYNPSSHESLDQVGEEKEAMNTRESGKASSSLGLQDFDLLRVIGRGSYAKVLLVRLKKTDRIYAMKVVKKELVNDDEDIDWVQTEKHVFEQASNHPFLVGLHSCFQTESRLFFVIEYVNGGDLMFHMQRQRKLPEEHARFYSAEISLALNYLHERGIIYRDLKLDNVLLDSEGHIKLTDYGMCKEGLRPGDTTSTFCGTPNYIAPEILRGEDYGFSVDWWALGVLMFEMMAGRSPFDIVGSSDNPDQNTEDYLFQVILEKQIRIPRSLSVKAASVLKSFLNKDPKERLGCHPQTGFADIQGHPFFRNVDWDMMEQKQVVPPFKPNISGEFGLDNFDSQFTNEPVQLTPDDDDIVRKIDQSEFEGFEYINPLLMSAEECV
Sequence of 1-phosphatidylinositol 3-phosphate 5-kinase (Homo sapiens) (Q9Y2I7 whole entry): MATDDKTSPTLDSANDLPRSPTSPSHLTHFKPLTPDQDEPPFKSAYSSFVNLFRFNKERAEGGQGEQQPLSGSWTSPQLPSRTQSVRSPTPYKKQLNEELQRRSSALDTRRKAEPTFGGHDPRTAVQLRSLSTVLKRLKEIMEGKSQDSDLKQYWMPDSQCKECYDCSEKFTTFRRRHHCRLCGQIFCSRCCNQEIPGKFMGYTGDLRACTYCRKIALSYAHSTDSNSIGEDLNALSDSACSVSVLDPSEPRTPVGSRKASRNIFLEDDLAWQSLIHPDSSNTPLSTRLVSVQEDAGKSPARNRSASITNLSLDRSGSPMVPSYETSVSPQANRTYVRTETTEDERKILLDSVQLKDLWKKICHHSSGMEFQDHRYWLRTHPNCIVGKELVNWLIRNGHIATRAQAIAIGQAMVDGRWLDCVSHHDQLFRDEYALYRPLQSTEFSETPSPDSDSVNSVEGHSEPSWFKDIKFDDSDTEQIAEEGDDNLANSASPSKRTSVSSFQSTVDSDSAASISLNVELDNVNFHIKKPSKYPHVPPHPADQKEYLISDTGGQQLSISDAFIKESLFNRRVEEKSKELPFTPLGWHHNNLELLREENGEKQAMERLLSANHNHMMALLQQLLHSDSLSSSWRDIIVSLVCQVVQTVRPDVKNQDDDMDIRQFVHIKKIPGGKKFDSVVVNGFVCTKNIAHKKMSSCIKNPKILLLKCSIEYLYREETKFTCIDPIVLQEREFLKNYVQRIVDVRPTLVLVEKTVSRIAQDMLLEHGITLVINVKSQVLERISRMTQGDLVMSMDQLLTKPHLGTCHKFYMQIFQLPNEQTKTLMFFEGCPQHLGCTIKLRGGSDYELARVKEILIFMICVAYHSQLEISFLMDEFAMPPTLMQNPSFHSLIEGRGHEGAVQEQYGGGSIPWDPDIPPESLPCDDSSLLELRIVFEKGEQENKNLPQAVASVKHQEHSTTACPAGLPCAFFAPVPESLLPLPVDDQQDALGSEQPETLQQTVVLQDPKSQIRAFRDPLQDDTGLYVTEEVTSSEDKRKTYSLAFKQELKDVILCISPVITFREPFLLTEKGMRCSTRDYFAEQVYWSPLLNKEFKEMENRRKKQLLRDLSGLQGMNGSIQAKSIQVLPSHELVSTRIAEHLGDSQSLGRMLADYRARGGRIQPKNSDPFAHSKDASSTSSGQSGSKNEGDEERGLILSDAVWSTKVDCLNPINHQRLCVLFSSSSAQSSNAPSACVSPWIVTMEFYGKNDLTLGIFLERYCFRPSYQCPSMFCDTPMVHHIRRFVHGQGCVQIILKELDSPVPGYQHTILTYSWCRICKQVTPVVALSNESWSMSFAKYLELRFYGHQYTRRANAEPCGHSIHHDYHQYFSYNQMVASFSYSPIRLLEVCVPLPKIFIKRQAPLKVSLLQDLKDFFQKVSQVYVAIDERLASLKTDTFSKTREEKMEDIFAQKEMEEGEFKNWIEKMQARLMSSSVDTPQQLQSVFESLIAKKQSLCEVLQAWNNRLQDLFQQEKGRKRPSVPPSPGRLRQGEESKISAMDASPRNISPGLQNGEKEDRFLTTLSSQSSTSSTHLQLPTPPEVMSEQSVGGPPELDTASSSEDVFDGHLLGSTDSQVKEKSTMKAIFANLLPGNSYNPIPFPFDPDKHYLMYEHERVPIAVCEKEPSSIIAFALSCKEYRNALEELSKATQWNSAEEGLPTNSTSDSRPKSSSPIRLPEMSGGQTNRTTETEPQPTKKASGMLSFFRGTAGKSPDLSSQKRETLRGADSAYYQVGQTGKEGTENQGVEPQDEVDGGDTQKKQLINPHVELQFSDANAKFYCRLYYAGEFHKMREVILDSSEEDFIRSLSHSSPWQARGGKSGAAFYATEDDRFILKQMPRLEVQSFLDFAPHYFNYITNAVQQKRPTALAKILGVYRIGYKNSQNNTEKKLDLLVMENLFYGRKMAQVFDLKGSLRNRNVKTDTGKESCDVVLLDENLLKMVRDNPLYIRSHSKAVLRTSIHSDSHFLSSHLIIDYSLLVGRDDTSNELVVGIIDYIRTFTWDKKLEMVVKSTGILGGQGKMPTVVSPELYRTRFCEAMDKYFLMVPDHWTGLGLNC
Sequence of Phosphatidylinositol 4,5-bisphosphate 3-kinase catalytic subunit alpha isoform (Homo sapiens), P42336 [I800L] (P42336 whole entry I800L, canonical isoform): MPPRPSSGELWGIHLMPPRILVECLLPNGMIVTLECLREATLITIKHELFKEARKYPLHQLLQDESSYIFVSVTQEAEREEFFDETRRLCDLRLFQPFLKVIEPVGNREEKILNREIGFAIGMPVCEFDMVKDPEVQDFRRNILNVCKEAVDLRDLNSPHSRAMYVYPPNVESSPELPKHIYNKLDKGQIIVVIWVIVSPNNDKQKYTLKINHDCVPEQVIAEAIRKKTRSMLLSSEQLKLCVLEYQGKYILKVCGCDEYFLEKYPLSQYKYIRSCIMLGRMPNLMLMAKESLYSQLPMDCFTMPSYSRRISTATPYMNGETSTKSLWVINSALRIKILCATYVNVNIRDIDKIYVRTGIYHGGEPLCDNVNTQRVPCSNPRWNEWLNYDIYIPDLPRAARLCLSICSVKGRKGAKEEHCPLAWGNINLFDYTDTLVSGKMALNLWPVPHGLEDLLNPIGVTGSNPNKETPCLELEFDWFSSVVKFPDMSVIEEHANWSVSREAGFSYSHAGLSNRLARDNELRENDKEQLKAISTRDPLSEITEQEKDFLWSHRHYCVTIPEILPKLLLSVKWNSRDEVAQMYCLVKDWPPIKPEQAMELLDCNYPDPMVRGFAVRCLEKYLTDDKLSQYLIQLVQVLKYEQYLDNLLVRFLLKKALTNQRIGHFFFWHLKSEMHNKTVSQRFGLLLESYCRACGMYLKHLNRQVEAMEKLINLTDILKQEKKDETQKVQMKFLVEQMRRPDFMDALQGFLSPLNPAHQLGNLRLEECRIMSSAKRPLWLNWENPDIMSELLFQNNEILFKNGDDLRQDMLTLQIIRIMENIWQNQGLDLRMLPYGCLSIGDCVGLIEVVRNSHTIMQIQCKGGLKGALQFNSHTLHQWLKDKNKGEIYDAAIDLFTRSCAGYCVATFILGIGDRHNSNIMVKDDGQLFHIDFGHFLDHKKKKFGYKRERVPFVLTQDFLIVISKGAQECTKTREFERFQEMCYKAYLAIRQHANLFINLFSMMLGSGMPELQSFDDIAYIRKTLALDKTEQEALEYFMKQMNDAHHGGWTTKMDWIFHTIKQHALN
Sequence of Ephrin type-B receptor 1 (Homo sapiens) (P54762 whole entry): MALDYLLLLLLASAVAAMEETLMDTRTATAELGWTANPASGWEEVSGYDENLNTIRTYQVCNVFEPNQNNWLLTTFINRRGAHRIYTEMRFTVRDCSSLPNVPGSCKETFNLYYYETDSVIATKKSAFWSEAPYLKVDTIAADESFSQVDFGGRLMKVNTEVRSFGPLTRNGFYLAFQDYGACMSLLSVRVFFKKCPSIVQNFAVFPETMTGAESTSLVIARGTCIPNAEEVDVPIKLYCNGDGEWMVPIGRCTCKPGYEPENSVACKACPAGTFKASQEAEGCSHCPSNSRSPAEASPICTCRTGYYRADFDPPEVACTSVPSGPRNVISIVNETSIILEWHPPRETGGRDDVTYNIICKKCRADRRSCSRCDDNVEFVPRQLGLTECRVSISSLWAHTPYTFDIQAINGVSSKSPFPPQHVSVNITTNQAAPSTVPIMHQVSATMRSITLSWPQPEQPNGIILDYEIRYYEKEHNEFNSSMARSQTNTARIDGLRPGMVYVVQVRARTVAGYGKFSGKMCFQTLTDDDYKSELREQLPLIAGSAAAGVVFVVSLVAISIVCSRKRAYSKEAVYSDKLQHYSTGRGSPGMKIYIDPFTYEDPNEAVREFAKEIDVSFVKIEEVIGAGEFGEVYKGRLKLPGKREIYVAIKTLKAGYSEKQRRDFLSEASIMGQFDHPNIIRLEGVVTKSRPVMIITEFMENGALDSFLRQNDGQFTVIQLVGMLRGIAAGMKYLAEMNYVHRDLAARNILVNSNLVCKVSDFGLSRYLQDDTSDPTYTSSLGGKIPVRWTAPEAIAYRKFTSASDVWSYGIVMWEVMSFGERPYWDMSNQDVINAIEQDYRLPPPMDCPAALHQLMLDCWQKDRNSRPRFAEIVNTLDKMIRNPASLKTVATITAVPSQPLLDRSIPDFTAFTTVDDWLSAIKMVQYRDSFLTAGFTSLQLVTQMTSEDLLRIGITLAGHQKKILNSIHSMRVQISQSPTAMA
Sequence of Mitogen-activated protein kinase 11 (Homo sapiens) (Q15759 whole entry): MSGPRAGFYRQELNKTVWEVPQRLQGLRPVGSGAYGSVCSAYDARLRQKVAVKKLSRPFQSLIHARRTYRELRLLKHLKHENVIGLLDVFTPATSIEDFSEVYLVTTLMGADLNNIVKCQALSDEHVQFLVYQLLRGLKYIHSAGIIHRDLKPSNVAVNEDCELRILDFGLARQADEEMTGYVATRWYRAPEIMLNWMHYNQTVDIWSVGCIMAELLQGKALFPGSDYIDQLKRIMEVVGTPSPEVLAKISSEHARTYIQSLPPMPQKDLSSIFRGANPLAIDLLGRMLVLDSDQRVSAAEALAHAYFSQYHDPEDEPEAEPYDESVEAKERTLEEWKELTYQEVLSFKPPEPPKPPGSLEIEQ

CC(C)(C)OC(=O)N1CCCC1CNC1CCC(c2cc(F)ccc2F)(S(=O)(=O)c2ccc(Cl)cc2)CC1 (stereo unspecified) [GSI-NC]
Ki (D(2) dopamine receptor): 1.22 µM

O=S(=O)(NC1CCC(c2cc(F)ccc2F)(S(=O)(=O)c2ccc(Cl)cc2)CC1)C(F)(F)F (stereo unspecified) [MRK-560]
residual activity [1]: 100%
residual activity [2]: 70%
residual activity [3]: 98%
residual activity [4]: 100%
residual activity [5]: 100%
residual activity [6]: 100%
residual activity [7]: 96%
residual activity [8]: 94%
residual activity [9]: 100%
residual activity [10]: 100%
residual activity [11]: 60%
residual activity [12]: 100%
residual activity [13]: 99%
residual activity [14]: 87%
residual activity [15]: 69%
residual activity [16]: 100%
residual activity [17]: 100%
residual activity [18]: 84%
residual activity [19]: 100%
residual activity [20]: 100%
inhibition [21]: 9.91%
residual activity [22]: 99%
residual activity [23]: 100%
residual activity [24]: 89%
residual activity [25]: 100%
residual activity [26]: 100%
residual activity [27]: 100%
residual activity [28]: 100%
residual activity [29]: 98%
residual activity [30]: 100%
residual activity [31]: 92%
residual activity [32]: 86%
residual activity [33]: 100%
residual activity [34]: 100%
residual activity [35]: 87%
residual activity [36]: 100%
residual activity [37]: 91%
residual activity [38]: 100%
residual activity [39]: 85%
residual activity [40]: 100%
residual activity [41]: 100%
residual activity [42]: 100%
residual activity [43]: 100%
residual activity [44]: 100%
residual activity [45]: 100%
